Usually IC50 stands for the concentration at which inhibition is half-maximal.

From US12685735B2 (Foghorn Therapeutics Inc., priority 2020, dated 2026) come the findings set out here.

Each structure is given as a SMILES string.

Experiment [1] has as its target BRG-1 (Homo sapiens, UniProt P51532). The experiment in a line: ATPase catalytic activity assay of BRG-1 (ADP-Glo). The conditions noted are these: ATPase catalytic activity, ADP-Glo; for IC50: read-out: BRG1 IC50 (μM)*; for Emax: read-out: BRG1 Max % Inhibition. It counts as biochemical. Summed up:
(§1)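 Luminescent ADP-Glo readout of ADP generated by ATP hydrolysis. Post-reaction: ATP depletion reagent, RT 40 min; detection reagent converting ADP→ATP, RT 60 min; luminescence read.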
(In ADP-Glo the light output rises with the ADP produced.)

The target in experiment [2] is BRM (Homo sapiens, UniProt P51531). In words: ATPase catalytic activity assay of BRM (ADP-Glo). It counts as biochemical. The conditions noted are these: for IC50: read-out: BRM IC50 (μM)*. Summed up: as §1
Chain of BRM (P51531 whole entry): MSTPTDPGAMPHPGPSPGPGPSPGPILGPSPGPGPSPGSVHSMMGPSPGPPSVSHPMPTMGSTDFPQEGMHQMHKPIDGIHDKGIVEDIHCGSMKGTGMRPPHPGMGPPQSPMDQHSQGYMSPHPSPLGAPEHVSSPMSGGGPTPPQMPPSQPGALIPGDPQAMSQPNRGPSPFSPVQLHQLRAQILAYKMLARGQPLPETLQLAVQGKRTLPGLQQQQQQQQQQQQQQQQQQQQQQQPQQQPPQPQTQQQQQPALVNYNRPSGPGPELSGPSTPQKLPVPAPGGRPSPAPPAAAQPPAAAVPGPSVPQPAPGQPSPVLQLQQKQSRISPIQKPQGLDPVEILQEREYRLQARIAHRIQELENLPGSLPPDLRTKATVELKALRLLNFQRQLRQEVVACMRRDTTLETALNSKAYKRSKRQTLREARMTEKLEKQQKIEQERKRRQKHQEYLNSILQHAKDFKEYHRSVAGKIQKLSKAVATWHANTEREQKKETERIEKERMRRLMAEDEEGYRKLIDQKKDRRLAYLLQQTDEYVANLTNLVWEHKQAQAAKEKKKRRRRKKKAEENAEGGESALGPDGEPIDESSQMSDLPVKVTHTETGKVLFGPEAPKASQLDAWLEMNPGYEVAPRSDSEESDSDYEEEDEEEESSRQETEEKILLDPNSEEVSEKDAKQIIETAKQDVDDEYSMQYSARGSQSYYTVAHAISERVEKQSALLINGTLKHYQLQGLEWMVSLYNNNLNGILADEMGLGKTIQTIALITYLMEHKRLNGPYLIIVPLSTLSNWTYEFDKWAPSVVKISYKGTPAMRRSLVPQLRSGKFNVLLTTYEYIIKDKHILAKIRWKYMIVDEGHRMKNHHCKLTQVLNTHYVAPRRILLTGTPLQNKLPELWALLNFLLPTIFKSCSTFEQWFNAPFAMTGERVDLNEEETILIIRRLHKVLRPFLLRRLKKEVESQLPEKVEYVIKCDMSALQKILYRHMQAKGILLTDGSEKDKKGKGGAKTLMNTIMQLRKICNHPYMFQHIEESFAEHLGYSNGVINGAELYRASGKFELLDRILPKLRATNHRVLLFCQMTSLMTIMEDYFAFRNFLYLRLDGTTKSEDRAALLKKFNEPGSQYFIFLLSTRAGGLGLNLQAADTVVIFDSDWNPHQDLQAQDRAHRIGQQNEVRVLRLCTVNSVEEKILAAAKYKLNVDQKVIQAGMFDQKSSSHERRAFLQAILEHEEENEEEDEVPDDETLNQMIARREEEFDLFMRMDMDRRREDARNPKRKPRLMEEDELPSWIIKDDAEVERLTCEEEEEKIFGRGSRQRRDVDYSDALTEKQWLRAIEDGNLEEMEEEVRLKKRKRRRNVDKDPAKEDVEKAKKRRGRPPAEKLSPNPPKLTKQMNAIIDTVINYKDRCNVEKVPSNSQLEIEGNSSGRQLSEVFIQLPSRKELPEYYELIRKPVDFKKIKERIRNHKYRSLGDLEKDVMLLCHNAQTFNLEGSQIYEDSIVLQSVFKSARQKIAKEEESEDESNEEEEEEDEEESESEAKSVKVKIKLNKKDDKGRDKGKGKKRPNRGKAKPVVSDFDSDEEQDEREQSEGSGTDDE

Chain of BRG-1 (P51532 whole entry): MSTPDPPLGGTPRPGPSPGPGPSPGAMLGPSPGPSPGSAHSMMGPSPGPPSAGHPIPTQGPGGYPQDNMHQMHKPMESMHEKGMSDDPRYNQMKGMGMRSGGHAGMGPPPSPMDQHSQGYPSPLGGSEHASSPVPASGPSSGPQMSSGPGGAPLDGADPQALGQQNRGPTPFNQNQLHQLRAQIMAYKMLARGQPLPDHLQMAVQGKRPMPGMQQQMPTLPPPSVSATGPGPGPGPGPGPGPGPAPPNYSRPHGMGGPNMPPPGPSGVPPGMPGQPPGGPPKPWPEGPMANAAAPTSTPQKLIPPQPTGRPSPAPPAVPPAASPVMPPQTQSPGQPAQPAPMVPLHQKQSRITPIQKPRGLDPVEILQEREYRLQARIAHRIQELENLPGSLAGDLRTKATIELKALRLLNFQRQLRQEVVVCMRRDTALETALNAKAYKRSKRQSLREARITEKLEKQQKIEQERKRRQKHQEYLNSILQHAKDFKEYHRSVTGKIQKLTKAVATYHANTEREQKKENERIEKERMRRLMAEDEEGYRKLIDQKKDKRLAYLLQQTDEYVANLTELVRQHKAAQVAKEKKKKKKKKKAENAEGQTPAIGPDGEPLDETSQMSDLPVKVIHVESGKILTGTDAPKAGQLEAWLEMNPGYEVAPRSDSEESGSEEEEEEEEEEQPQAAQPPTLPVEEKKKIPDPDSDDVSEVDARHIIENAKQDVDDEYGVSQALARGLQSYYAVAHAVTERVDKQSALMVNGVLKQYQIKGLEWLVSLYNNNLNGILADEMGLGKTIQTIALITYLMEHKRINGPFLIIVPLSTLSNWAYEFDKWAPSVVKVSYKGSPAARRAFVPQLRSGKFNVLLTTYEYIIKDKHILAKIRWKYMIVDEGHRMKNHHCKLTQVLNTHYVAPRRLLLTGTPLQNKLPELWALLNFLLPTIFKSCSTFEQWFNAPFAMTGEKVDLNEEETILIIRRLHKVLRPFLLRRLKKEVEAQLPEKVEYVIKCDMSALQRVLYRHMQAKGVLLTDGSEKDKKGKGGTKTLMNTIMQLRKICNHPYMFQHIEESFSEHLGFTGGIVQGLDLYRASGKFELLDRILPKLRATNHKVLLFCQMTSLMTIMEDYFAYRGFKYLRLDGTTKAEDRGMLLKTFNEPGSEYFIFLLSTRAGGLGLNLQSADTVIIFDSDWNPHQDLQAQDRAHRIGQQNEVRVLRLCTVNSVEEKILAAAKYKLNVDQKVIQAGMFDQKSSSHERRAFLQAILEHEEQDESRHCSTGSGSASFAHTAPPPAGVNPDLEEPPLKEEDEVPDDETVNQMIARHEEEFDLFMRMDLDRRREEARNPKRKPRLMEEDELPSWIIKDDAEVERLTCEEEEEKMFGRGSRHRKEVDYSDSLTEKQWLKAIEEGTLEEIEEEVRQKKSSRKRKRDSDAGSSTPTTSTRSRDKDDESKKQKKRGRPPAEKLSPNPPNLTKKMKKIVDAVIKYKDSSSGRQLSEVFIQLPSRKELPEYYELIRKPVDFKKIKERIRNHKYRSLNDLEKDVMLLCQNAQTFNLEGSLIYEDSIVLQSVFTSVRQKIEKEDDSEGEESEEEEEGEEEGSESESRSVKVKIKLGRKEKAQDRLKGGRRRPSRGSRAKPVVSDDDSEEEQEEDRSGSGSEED

As to `O=C(CNC(=O)c1cccc(C2(C(F)F)COC2)c1)Nc1nc(-c2cccc(N3CCC3)c2)cs1` [Compound 362, N-(2-((4-(3-(azetidin-1-yl)phenyl)thiazol-2-yl)amino)-2-oxoethyl)-3-(3-(difluoromethyl)oxetan-3-yl)benzamide], in experiment [1], the IC50 was 0.1 to 1 µM and the Emax is over 90%. For the same molecule, in experiment [2], the “BRM Max % Inhibition” value is over 90% and the IC50 was under 0.1 µM.

For the molecule `C[C@@H]1CN(c2cccc(-c3csc(NC(=O)CNC(=O)c4ccc5c(c4)C(F)(C(F)F)COC5)n3)c2)C[C@H](C)O1` (stereo partly drawn) [Compound 329, 4-(difluoromethyl)-N-(2-((4-(3-((cis)-2,6-dimethylmorpholino)phenyl)thiazol-2-yl)amino)-2-oxoethyl)-4-fluoroisochromane-6-carboxamide], in experiment [1], the IC50 was under 0.1 µM and the Emax is over 95%. Also, in experiment [2], the “BRM Max % Inhibition” value was over 95% and the IC50 is under 0.1 µM.

With `Cc1cc(-c2cccc(-c3csc(NC(=O)CNC(=O)c4ccc5c(c4)[C@](C)(CN)CCC5)n3)c2)cc(C)n1` [Compound 225, (4R)-4-(aminomethyl)-N-[2-[[4-[3-(2,6-dimethyl-4-pyridyl)phenyl]thiazol-2-yl]amino]-2-oxo-ethyl]-4-methyl-tetralin-6-carboxamide], in experiment [1], the IC50 is over 5 µM and the Emax is over 40%. Also, in experiment [2], the “BRM Max % Inhibition” value is reported as over 80% and the IC50 fell in the range of 0.1 to 1 µM.

On to `Cc1cc(-c2cccc(-c3csc(NC(=O)CNC(=O)c4ccc5c(c4)[C@](C)(CO)CC5)n3)c2)nc(C)n1` [Compound 228, (3R)-N-[2-[[4-[3-(2,6-dimethylpyrimidin-4-yl)phenyl]thiazol-2-yl]amino]-2-oxo-ethyl]-3-(hydroxymethyl)-3-methyl-indane-5-carboxamide], for which, in experiment [1], the IC50 was under 0.1 µM and the Emax is over 95%. For the same molecule, in experiment [2], the “BRM Max % Inhibition” value is recorded as over 95% and the half-maximal inhibitory concentration (IC50) is under 0.1 µM.

For `C[C@@H]1CN(c2cccc(-c3csc(NC(=O)CNC(=O)c4ccc5c(c4)[C@](C)(C#N)CC5)n3)n2)C[C@H](C)O1` [Compound 152, (R)-3-cyano-N-(2-((4-(6-((cis)-2,6-dimethylmorpholino)pyridin-2-yl)thiazol-2-yl)amino)-2-oxoethyl)-3-methyl-2,3-dihydro-1H-indene-5-carboxamide], in experiment [1], the IC50 is under 0.1 µM and the Emax was over 95%. Also, in experiment [2], the “BRM Max % Inhibition” value was over 95% and the IC50 is under 0.1 µM.

For `C[C@@H]1CN(c2cccc(-c3csc(NC(=O)CNC(=O)c4ccc5c(c4)[C@@](C)(C#N)CC5)n3)n2)C[C@H](C)O1` [Compound 262, (S)-3-cyano-N-(2-((4-(6-((cis)-2,6-dimethylmorpholino)pyridin-2-yl)thiazol-2-yl)amino)-2-oxoethyl)-3-methyl-2,3-dihydro-1H-indene-5-carboxamide], in experiment [1], the IC50 was 1 to 5 µM and the Emax was over 50%. In addition, in experiment [2], the “BRM Max % Inhibition” value is recorded as over 80% and the IC50 lay within 1 to 5 µM.

Turning to `C[C@@H]1CN(c2cccc(-c3csc(NC(=O)CNC(=O)c4ccc5c(c4)[C@@](C)(CO)CN5C)n3)c2)C[C@H](C)O1` [Compound 404, (R)-N-(2-((4-(3-((cis)-2,6-dimethylmorpholino)phenyl)thiazol-2-yl)amino)-2-oxoethyl)-3-(hydroxymethyl)-1,3-dimethylindoline-5-carboxamide], in experiment [1], the IC50 is over 5 µM and the Emax was over 80%. In addition, in experiment [2], the “BRM Max % Inhibition” value is over 80% and the IC50 fell in the range of 0.1 to 1 µM.

For `COCC(NC(=O)c1ccc2c(c1)[C@](C)(F)COC2)C(=O)Nc1nc(-c2cccc(C(F)F)c2)cs1` (stereo in doubt) [Compound 327, (S)-N-((R)-1-((4-(3-(difluoromethyl)phenyl)thiazol-2-yl)amino)-3-methoxy-1-oxopropan-2-yl)-4-fluoro-4-methylisochromane-6-carboxamide], in experiment [1], the IC50 lay within 0.1 to 1 µM and the Emax is over 95%. In experiment [2], the “BRM Max % Inhibition” value was over 95% and the concentration for half-maximal inhibition (IC50) was under 0.1 µM.

As for `CC(C)(CN)c1cccc(C(=O)NCC(=O)Nc2nc(-c3cccc(-c4cc(C#N)cc(CO)c4)c3)cs2)c1` [Compound 52, 3-(1-amino-2-methylpropan-2-yl)-N-(2-((4-(3′-cyano-5′-(hydroxymethyl)-[1,1′-biphenyl]-3-yl)thiazol-2-yl)amino)-2-oxoethyl)benzamide], in experiment [1], the IC50 was 1 to 5 µM and the Emax is over 70%. Further, in experiment [2], the “BRM Max % Inhibition” value is reported as over 80% and the IC50 was in the range of 0.1 to 1 µM.

Consider `CC1(C#N)CCc2ccc(C(=O)NCC(=O)Nc3nc(-c4cccc(-c5ccncc5)c4)cs3)cc21` (stereo not drawn) [Compound 76, 3-cyano-3-methyl-N-(2-oxo-2-((4-(3-(pyridin-4-yl)phenyl)thiazol-2-yl)amino)ethyl)-2,3-dihydro-1H-indene-5-carboxamide], for which, in experiment [1], the IC50 was under 0.1 µM and the Emax was over 80%. In experiment [2], the “BRM Max % Inhibition” value was over 95% and the IC50 was under 0.1 µM.

As to `COc1cc(-c2cccc(-c3csc(NC(=O)CNC(=O)c4cccc(C(C)(C)CN)c4)n3)c2)ccn1` [Compound 49, 3-(1-amino-2-methylpropan-2-yl)-N-(2-((4-(3-(2-methoxypyridin-4-yl)phenyl)thiazol-2-yl)amino)-2-oxoethyl)benzamide], in experiment [1], the IC50 is over 5 µM and the Emax is over 60%. In experiment [2], the “BRM Max % Inhibition” value is listed as over 80% and the IC50 lay in the range of 0.1 to 1 µM.

For `C[C@@H]1CN(c2cccc(-c3csc(NC(=O)CNC(=O)c4ccc5c(c4)[C@]4(COC5)CC4(F)F)n3)n2)C[C@H](C)O1` [Compound 411, (S)-N-(2-((4-(6-((cis)-2,6-dimethylmorpholino)pyridin-2-yl)thiazol-2-yl)amino)-2-oxoethyl)-2,2-difluorospiro[cyclopropane-1,4′-isochromane]-6′-carboxamide], in experiment [1], the IC50 is over 5 µM and the Emax was over 90%. Further, in experiment [2], the “BRM Max % Inhibition” value is reported as over 90% and the IC50 fell in the range of 0.1 to 1 µM.

`C[C@@H]1CN(c2cccc(-c3csc(NC(=O)CNC(=O)c4ccc5c(c4)[C@@](C)(C#N)CCO5)n3)c2)C[C@H](C)O1` [Compound 255, (4S)-4-cyano-N-[2-[[4-[3-[(cis)-2,6-dimethylmorpholin-4-yl]phenyl]thiazol-2-yl]amino]-2-oxo-ethyl]-4-methyl-chromane-6-carboxamide]: in experiment [1], the IC50 is over 5 µM and the Emax is over 40%. Besides, in experiment [2], the “BRM Max % Inhibition” value is given as over 70% and the IC50 lay within 1 to 5 µM.

As to `O=C(CNC(=O)c1cccc(C2(C(F)F)COC2)c1)Nc1nc(-c2cccc(C(F)F)c2)cs1` [Compound 344, 3-(3-(difluoromethyl)oxetan-3-yl)-N-(2-((4-(3-(difluoromethyl)phenyl)thiazol-2-yl)amino)-2-oxoethyl)benzamide], in experiment [1], the IC50 fell in the range of 0.1 to 1 µM and the Emax is over 95%. Moreover, in experiment [2], the “BRM Max % Inhibition” value is over 95% and the IC50 was in the range of 0.1 to 1 µM.

Regarding `CC(C)(CO)c1cccc(C(=O)NCC(=O)Nc2nc(-c3cccc(-c4ccncc4)c3)cs2)c1` [Compound 73, 3-(1-hydroxy-2-methylpropan-2-yl)-N-(2-oxo-2-((4-(3-(pyridin-4-yl)phenyl)thiazol-2-yl)amino)ethyl)benzamide], in experiment [1], the IC50 was in the range of 0.1 to 1 µM and the Emax was over 80%. Further, in experiment [2], the “BRM Max % Inhibition” value is given as over 95% and the IC50 was under 0.1 µM.
